According to ChEMBL document CHEMBL4732090, “Preparation of new 1,3-dibenzyl tetrahydropyridinylidene ammonium salts and their antimicrobial and anticellular activities” (Eur J Med Chem, 2021):
Each block holds one compound with its values, some of them ahead of it.

Legend:
Plasmodium falciparum [1] = test: Antiplasmodial activity against chloroquine and pyrimethamine resistant Plasmodium falciparum K1 strain; assay type: functional, organism-based
[2] = test system: Staphylococcus epidermidis; test: Antibacterial activity against Staphylococcus epidermis ATCC 12228 assessed as diameter of inhibition zone at 10 mg/ml by disk diffusion assay; assay type: functional; settings: read-out: DIZ
Plasmodium falciparum [3] = test: Antiplasmodial activity against Plasmodium falciparum NF54 erythrocytic stages assessed as reduction in [3H]hypoxanthine incorporation measured after 48 hrs by liquid scintillation counting method; assay type: functional, organism-based
[4] = Selectivity index, ratio of IC50 for rat L6 cells to IC50 for Plasmodium falciparum NF54; assay type: toxicity; settings: read-out: Ratio IC50
Candida albicans = test: Antifungal activity against Candida albicans ATCC 90028 assessed as diameter of inhibition zone at 10 mg/ml by disk diffusion assay; assay type: functional; settings: read-out: DIZ
Pseudomonas aeruginosa = test: Antibacterial activity against Pseudomonas aeruginosa ATCC 27853 assessed as diameter of inhibition zone at 10 mg/ml by disk diffusion assay; assay type: functional; settings: read-out: DIZ
[5] = test system: Trypanosoma brucei rhodesiense; test: Trypanocidal activity against Trypanosoma brucei rhodesiense STIB900 incubated for 70 hrs by Alamar blue assay; assay type: functional, organism-based; settings: STIB900, 70 h
[6] = Selectivity index, ratio of IC50 for rat L6 cells to IC50 for chloroquine and pyrimethamine resistant Plasmodium falciparum K1; assay type: toxicity; settings: read-out: Ratio IC50
L6 = test: Cytotoxicity against rat L6 cells after 70 hrs by Alamar blue assay; assay type: cell-based; settings: L6, 70 h, read-out: IC50
Staphylococcus aureus = test: Antibacterial activity against Staphylococcus aureus ATCC 29213 assessed as diameter of inhibition zone at 10 mg/ml by disk diffusion assay; assay type: functional; settings: read-out: DIZ
[7] = Selectivity index, ratio of IC50 for rat L6 cells to IC50 for Trypanosoma brucei rhodesiense STIB900; assay type: toxicity; settings: read-out: Ratio IC50
Escherichia coli = test: Antibacterial activity against Escherichia coli ATCC 25922 assessed as diameter of inhibition zone at 10 mg/ml by disk diffusion assay; assay type: functional; settings: read-out: DIZ
HCT-116 = test: Cytotoxicity against human HCT-116 cells assessed as inhibition of cell growth at 50 uM after 72 hrs by XTT assay relative to control; assay type: functional
U-251 = test: Cytotoxicity against human U-251 cells assessed as inhibition of cell growth at 50 uM after 72 hrs by XTT assay relative to control; assay type: functional

- IC50 (Plasmodium falciparum [3]): 7.7 nM
SMILES: CC1(C)C(Cc2ccc(Br)cc2)C(=[N+]2CCCC2)C=CN1Cc1ccccc1 (racemic)
- zone of inhibition at 10000 µg/mL [2]: 25 mm
- selectivity ratio [4]: 4480
- zone of inhibition at 10000 µg/mL (Candida albicans): 13 mm
- zone of inhibition at 10000 µg/mL (Pseudomonas aeruginosa): 0 mm
- IC50 [5]: 180 nM
- IC50 (L6): 34500 nM
- zone of inhibition at 10000 µg/mL (Staphylococcus aureus): 22 mm
- selectivity ratio [7]: 192
- zone of inhibition at 10000 µg/mL (Escherichia coli): 11 mm

- IC50 (Plasmodium falciparum [3]): 85 nM
SMILES: CC1(C)C(Cc2ccccc2C(F)(F)F)C(=[N+]2CCCC2)C=CN1Cc1ccccc1 (racemic)
- zone of inhibition at 10000 µg/mL [2]: 22 mm
- selectivity ratio [4]: 912
- zone of inhibition at 10000 µg/mL (Candida albicans): 10 mm
- zone of inhibition at 10000 µg/mL (Pseudomonas aeruginosa): 0 mm
- IC50 [5]: 100 nM
- IC50 (L6): 77600 nM
- zone of inhibition at 10000 µg/mL (Staphylococcus aureus): 23 mm
- selectivity ratio [7]: 776
- zone of inhibition at 10000 µg/mL (Escherichia coli): 13 mm

- IC50 (Plasmodium falciparum [3]): 30 nM
SMILES: CC(C)(C)c1ccc(CC2C(=[N+]3CCCC3)C=CN(Cc3ccccc3)C2(C)C)cc1 (racemic)
- zone of inhibition at 10000 µg/mL [2]: 24 mm
- selectivity ratio [4]: 31.3
- zone of inhibition at 10000 µg/mL (Candida albicans): 22 mm
- zone of inhibition at 10000 µg/mL (Pseudomonas aeruginosa): 0 mm
- IC50 [5]: 20 nM
- inhibition at 50 µM (HCT-116): 100%
- IC50 (L6): 940 nM
- zone of inhibition at 10000 µg/mL (Staphylococcus aureus): 22 mm
- selectivity ratio [7]: 47
- zone of inhibition at 10000 µg/mL (Escherichia coli): 15 mm
- inhibition at 50 µM (U-251): 100%

- IC50 (Plasmodium falciparum [3]): 26 nM
SMILES: CC1(C)C(Cc2ccc(C(F)(F)F)cc2)C(=[N+]2CCCC2)C=CN1Cc1ccccc1 (racemic)
- zone of inhibition at 10000 µg/mL [2]: 24 mm
- selectivity ratio [4]: 3300
- zone of inhibition at 10000 µg/mL (Candida albicans): 15 mm
- zone of inhibition at 10000 µg/mL (Pseudomonas aeruginosa): 0 mm
- IC50 [5]: 320 nM
- IC50 (L6): 85900 nM
- zone of inhibition at 10000 µg/mL (Staphylococcus aureus): 22 mm
- selectivity ratio [7]: 268
- zone of inhibition at 10000 µg/mL (Escherichia coli): 11 mm

- IC50 (Plasmodium falciparum [3]): 30 nM
SMILES: CC1(C)C(Cc2ccccc2)C(=[N+]2CCCC2)C=CN1Cc1ccc(Cl)cc1 (racemic)
- zone of inhibition at 10000 µg/mL [2]: 29 mm
- selectivity ratio [4]: 1260
- zone of inhibition at 10000 µg/mL (Candida albicans): 20 mm
- zone of inhibition at 10000 µg/mL (Pseudomonas aeruginosa): 0 mm
- IC50 [5]: 120 nM
- IC50 (L6): 37900 nM
- zone of inhibition at 10000 µg/mL (Staphylococcus aureus): 22 mm
- selectivity ratio [7]: 316
- zone of inhibition at 10000 µg/mL (Escherichia coli): 13 mm

More lines, now with the values behind:

SMILES: CC1(C)C(Cc2ccc(C#N)cc2)C(=[N+]2CCCC2)C=CN1Cc1ccccc1 (centres undefined)
- IC50 (Plasmodium falciparum [1]): 120 nM
- zone of inhibition at 10000 µg/mL [2]: 12 mm
- IC50 (Plasmodium falciparum [3]): 17 nM
- selectivity ratio [4]: > 12700
- zone of inhibition at 10000 µg/mL (Candida albicans): 0 mm
- zone of inhibition at 10000 µg/mL (Pseudomonas aeruginosa): 5 mm
- IC50 [5]: 11000 nM
- selectivity ratio [6]: > 1790
- IC50 (L6): > 215000 nM
- zone of inhibition at 10000 µg/mL (Staphylococcus aureus): 14 mm
- selectivity ratio [7]: > 19.6
- zone of inhibition at 10000 µg/mL (Escherichia coli): 8 mm

SMILES: CC1(C)C(Cc2ccc([N+](=O)[O-])cc2)C(=[N+]2CCCC2)C=CN1Cc1ccccc1 (racemic)
- zone of inhibition at 10000 µg/mL [2]: 18 mm
- IC50 (Plasmodium falciparum [3]): 43 nM
- selectivity ratio [4]: 4800
- zone of inhibition at 10000 µg/mL (Candida albicans): 0 mm
- zone of inhibition at 10000 µg/mL (Pseudomonas aeruginosa): 0 mm
- IC50 [5]: 5450 nM
- IC50 (L6): 206000 nM
- zone of inhibition at 10000 µg/mL (Staphylococcus aureus): 15 mm
- selectivity ratio [7]: 37.9
- zone of inhibition at 10000 µg/mL (Escherichia coli): 11 mm

SMILES: CC1(C)C(Cc2ccccc2)C(=[N+]2CCCC2)C=CN1Cc1ccccc1 (racemic)
- IC50 (Plasmodium falciparum [1]): 55 nM
- zone of inhibition at 10000 µg/mL [2]: 25 mm
- IC50 (Plasmodium falciparum [3]): 32 nM
- selectivity ratio [4]: 1530
- zone of inhibition at 10000 µg/mL (Candida albicans): 0 mm
- zone of inhibition at 10000 µg/mL (Pseudomonas aeruginosa): 0 mm
- IC50 [5]: 130 nM
- selectivity ratio [6]: 888
- IC50 (L6): 48800 nM
- zone of inhibition at 10000 µg/mL (Staphylococcus aureus): 21 mm
- selectivity ratio [7]: 376
- zone of inhibition at 10000 µg/mL (Escherichia coli): 12 mm

SMILES: CC1(C)C(Cc2ccccc2)C(=[N+]2CCCCC2)C=CN1Cc1ccccc1 (racemic)
- IC50 (Plasmodium falciparum [1]): 24 nM
- zone of inhibition at 10000 µg/mL [2]: 28 mm
- IC50 (Plasmodium falciparum [3]): 15 nM
- selectivity ratio [4]: 1640
- zone of inhibition at 10000 µg/mL (Candida albicans): 0 mm
- zone of inhibition at 10000 µg/mL (Pseudomonas aeruginosa): 0 mm
- IC50 [5]: 44 nM
- selectivity ratio [6]: 1024
- IC50 (L6): 24600 nM
- zone of inhibition at 10000 µg/mL (Staphylococcus aureus): 22 mm
- selectivity ratio [7]: 558
- zone of inhibition at 10000 µg/mL (Escherichia coli): 10 mm

SMILES: CC(C)c1ccc(CC2C(=[N+]3CCCC3)C=CN(Cc3ccccc3)C2(C)C)cc1 (racemic)
- zone of inhibition at 10000 µg/mL [2]: 29 mm
- IC50 (Plasmodium falciparum [3]): 39 nM
- selectivity ratio [4]: 64.4
- zone of inhibition at 10000 µg/mL (Candida albicans): 21 mm
- zone of inhibition at 10000 µg/mL (Pseudomonas aeruginosa): 6 mm
- IC50 [5]: 42 nM
- inhibition at 50 µM (HCT-116): 100%
- IC50 (L6): 2510 nM
- zone of inhibition at 10000 µg/mL (Staphylococcus aureus): 25 mm
- selectivity ratio [7]: 59.8
- zone of inhibition at 10000 µg/mL (Escherichia coli): 10 mm
- inhibition at 50 µM (U-251): 100%

SMILES: CC1(C)C(Cc2c(Cl)cccc2Cl)C(=[N+]2CCCC2)C=CN1Cc1ccc(Cl)cc1 (racemic)
- IC50 (Plasmodium falciparum [1]): 6 nM
- zone of inhibition at 10000 µg/mL [2]: 33 mm
- IC50 (Plasmodium falciparum [3]): 3.6 nM
- selectivity ratio [4]: 1260
- zone of inhibition at 10000 µg/mL (Candida albicans): 20 mm
- zone of inhibition at 10000 µg/mL (Pseudomonas aeruginosa): 12 mm
- IC50 [5]: 52 nM
- selectivity ratio [6]: 755
- inhibition at 50 µM (HCT-116): 100%
- IC50 (L6): 4530 nM
- zone of inhibition at 10000 µg/mL (Staphylococcus aureus): 21 mm
- selectivity ratio [7]: 87.1
- zone of inhibition at 10000 µg/mL (Escherichia coli): 15 mm
- inhibition at 50 µM (U-251): 100%

SMILES: CC1(C)C(Cc2ccc(Cl)cc2Cl)C(=[N+]2CCCC2)C=CN1Cc1ccccc1 (racemic)
- zone of inhibition at 10000 µg/mL [2]: 26 mm
- IC50 (Plasmodium falciparum [3]): 18 nM
- selectivity ratio [4]: 1450
- zone of inhibition at 10000 µg/mL (Candida albicans): 15 mm
- zone of inhibition at 10000 µg/mL (Pseudomonas aeruginosa): 0 mm
- IC50 [5]: 110 nM
- IC50 (L6): 26100 nM
- zone of inhibition at 10000 µg/mL (Staphylococcus aureus): 22 mm
- selectivity ratio [7]: 237
- zone of inhibition at 10000 µg/mL (Escherichia coli): 12 mm
